The text below walks through data of patent US9120768B2, “Compositions and methods for treatment of cystic fibrosis and diseases associated with aberrant protein cellular processing” (The Hospital for Sick Children, priority 2010, dated 2015).

The target in series [1] is T1, delF508-CFTR (Homo sapiens, UniProt P13569, DEL508-508). The series is described as follows: Short circuit current (Ussing chamber) in primary human bronchial epithelial cells. Also noted: primary cultures of human bronchial epithelia (HBE) obtained from transplant patients homozygous for the delF508 mutation; host or cells: primary human bronchial epithelial (HBE) cells from delF508/delF508 lung transplant patients. It counts as cell-based. Conditions: 10 μM, 48 hrs, HBE cells of delF508/delF508 patients, versus vehicle alone; FIGS. 5-7.
T1 sequence (P13569 with tags, fused parts or gaps DEL508-508): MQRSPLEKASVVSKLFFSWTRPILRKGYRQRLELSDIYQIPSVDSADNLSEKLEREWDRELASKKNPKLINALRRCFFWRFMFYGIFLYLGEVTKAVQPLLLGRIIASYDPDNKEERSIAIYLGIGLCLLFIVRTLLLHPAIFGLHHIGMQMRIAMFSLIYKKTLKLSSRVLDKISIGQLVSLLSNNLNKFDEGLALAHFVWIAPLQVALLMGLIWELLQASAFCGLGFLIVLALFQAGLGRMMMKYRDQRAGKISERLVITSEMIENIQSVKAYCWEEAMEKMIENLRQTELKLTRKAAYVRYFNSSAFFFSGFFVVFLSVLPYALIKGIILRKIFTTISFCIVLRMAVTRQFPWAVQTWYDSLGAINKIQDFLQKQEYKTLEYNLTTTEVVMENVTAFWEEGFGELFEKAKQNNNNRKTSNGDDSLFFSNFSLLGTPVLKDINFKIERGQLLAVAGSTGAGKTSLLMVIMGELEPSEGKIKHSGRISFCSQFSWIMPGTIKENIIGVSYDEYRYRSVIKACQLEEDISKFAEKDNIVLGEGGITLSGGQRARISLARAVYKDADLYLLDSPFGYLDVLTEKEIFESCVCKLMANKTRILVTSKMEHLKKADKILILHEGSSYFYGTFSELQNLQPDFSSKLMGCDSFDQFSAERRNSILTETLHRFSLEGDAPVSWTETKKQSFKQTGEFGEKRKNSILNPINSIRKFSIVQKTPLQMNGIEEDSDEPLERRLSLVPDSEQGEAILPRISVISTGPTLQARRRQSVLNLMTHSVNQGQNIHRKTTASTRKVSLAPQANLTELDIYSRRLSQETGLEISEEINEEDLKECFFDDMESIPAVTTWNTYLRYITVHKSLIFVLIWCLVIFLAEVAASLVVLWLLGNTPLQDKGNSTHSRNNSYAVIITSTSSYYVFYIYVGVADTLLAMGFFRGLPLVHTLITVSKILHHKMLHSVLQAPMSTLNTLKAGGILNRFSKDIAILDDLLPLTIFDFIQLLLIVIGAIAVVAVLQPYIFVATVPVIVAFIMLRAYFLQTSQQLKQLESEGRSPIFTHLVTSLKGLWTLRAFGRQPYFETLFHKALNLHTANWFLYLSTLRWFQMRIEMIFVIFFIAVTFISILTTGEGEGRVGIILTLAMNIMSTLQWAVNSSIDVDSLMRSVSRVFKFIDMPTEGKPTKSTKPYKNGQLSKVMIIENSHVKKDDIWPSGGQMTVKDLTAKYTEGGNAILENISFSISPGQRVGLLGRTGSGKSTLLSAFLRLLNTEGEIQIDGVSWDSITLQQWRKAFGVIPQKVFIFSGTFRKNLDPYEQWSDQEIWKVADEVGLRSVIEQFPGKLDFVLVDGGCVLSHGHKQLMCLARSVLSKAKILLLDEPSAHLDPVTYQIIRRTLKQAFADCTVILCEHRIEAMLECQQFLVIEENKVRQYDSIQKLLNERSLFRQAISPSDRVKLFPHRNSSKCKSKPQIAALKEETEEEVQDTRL

The target in series [2] is T1, delF508-CFTR. The series can be described thus: Cellomics YFP quenching assay. Also noted: expressed in transfected cells; host or cells: HEK293 MSR GripTite (293MSR-GT) cells, also stably expressing eYFP(H148Q/I152L). In kind it is cell-based. Conditions: 10 μM, 48 hrs, 37° C., 293MSR-GT cells, stimulated with FIG; FIG. 1.
Method: Cellomics YFP quenching assay was performed as described previously^66. […] After 48 hrs of incubation the medium was replaced with 152 μl of chloride solution (137 mM NaCl, 2.7 mM KCl, 0.7 mM CaCl2, 1.1 mM MgCl2, 1.5 mM KH2PO4, 8.1 mM Na2HPO4, pH 7.1), in the absence or presence of FIG (25 M Forskolin, 45 μM IBMX, 50 μM Genistein) at 37° C. After 20 min incubation, 92 μl of iodide buffer (137 mM NaI, 2.7 mM KCl, 0.7 mM CaCl2, 1.1 mM MgCl2, 1.5 mM KH2PO4, 8.1 mM Na2HPO4, pH 7.1) was added (final concentration 52 mM) and the decrease in fluorescence intensity over time was recorded using the Cellomics VTI (ThermoFisher), at 30° C. […] After two days of incubation, cells were stimulated for 20 min with FIG mixture. They were then exposed to low Cl^−/high I^− medium by replacing 137 mM Na^+Cl^− with Na^+I^−, and fluorescence quenching of the cells due to Cl^−/I^− exchange (presumably via CFTR) was monitored and quantified over time by the Cellomics VTI reader.
Series [3] deals with T1, delF508-CFTR. The series can be described thus: Immunoblotting for delF508-CFTR maturation (band C). Also noted: expressed in transfected cells; host or cells: HEK293 MSR GripTite (293MSR-GT) cells, also stably expressing eYFP(H148Q/I152L). Conditions: 10 μM, 48 hrs, 37° C., 293MSR-GT cells, anti-CFTR immunoblot; FIG. 2. In kind it is cell-based. In general terms: In western blotting, separated proteins are transferred to a membrane and probed.
Method: Protein expression and rescue of delF508-CFTR were validated by immunoblotting with anti-CFTR monoclonal antibodies (clone M3A7, Chemicon Cat.#MAB3480) as described previously^66. […] The rescue of delF508-CFTR was validated by Western blotting as described previously^66. […] Proteins were resolved on SDS-PAGE, transferred to nitrocellulose membranes and immunoblotted with anti-CFTR monoclonal antibodies (M3A7, 1 μg/ml) or anti-β-actin antibodies (1:10000). Membranes were washed with 5% Blotto, incubated with HRP-conjugated goat anti-mouse antibody (1:5000) and washed with PBST. Signal was detected with SuperSignal West Femto reagent.

The target of a further series is ERK2 (Homo sapiens, UniProt P28482). Conditions: cited from earlier work.
Sequence of ERK2 (P28482 whole entry, species assumed): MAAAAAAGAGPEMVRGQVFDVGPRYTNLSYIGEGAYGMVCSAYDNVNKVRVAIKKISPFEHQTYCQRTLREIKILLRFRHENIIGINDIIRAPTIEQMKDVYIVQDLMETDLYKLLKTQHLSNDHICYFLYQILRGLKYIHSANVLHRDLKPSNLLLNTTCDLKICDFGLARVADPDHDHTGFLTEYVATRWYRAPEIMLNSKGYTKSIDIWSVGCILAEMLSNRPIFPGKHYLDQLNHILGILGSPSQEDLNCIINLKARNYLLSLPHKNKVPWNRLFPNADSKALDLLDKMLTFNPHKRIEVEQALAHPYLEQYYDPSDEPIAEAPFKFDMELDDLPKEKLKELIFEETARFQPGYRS
Another series concerns inflammation. Conditions: animal model, topical application; cited from earlier work.
The next series concerns the target TAK1 (Homo sapiens, UniProt O43318). Conditions: competitive with ATP; cited from earlier work.
In a further series the test system is 293MSR-GT cells. The series is described as follows: Sensitivity of 293MSR-GT cells toward compound. Conditions: compound could not be tested by YFP quenching or immunoblotting.

Sequence of TAK1 (O43318 whole entry): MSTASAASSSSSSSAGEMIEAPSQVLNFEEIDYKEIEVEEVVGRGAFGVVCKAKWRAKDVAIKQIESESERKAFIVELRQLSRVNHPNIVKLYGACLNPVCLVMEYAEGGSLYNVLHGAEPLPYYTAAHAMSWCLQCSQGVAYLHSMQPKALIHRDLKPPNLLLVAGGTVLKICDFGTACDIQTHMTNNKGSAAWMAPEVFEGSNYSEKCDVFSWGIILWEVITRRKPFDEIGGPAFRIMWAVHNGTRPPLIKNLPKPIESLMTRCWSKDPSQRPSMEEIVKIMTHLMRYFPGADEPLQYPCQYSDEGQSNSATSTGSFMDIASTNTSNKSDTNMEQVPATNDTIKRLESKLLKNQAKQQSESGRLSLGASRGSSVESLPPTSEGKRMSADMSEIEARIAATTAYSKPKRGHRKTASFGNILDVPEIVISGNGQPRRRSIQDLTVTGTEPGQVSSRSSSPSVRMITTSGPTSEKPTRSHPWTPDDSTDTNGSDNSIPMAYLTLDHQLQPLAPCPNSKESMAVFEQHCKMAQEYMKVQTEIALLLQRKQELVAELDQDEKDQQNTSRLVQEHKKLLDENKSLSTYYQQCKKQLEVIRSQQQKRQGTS
Sequence of TAK1 (Q15750 whole entry partner): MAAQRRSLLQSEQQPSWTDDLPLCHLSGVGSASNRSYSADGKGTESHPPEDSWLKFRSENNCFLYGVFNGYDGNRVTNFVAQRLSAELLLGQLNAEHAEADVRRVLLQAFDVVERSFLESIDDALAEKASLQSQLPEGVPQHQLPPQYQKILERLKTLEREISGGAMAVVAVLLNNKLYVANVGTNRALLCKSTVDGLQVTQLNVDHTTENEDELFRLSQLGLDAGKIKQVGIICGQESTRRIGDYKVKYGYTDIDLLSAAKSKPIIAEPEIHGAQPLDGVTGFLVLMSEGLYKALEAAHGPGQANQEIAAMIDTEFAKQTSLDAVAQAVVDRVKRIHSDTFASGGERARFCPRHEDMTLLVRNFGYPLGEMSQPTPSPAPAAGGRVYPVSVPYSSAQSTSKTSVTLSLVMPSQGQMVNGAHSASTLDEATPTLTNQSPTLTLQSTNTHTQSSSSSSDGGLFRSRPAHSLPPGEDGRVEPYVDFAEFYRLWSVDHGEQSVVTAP

Turning to `Cc1c[nH]c(/C=C2\C(=O)Nc3ccccc32)c1CCC(=O)O` [SU5402, 3-[4-methyl-2-[(Z)-(2-oxo-1H-indol-3-ylidene)methyl]-1H-pyrrol-3-yl]propanoic acid], the “delF508-CFTR chloride channel activity (short-circuit current)” value (“delF508-CFTR chloride channel activity” for short) at delF508-CFTR [1] is given as “enhanced activity of the mutant CFTR”. The “delF508-CFTR activity (fluorescence quenching due to Cl-/I- exchange)” value on delF508-CFTR [2] was “restores delF508-CFTR activity to a level that is similar to that obtained with corr-4-a”. Further, the “appearance of mature delF508-CFTR protein (band C)” value at delF508-CFTR [3] is “led to the appearance of the mature band C, similar to that seen with corr-4-a”.
For the compound `COc1cc(O)c2c(c1)/C=C/C[C@H](O)[C@H](O)C(=O)/C=C\C[C@H](C)OC2=O` [(5Z)-7-oxozeaenol, (3S,5Z,8S,9S,11E)-3,4,9,10-tetrahydro-8,9,16-trihydroxy-14-methoxy-3-methyl-1H-2-benzoxacyclotetradecin-1,7(8H)-dione], the “ERK2 enzyme activity inhibition” value at ERK2 is given as “inhibit ERK2 enzyme activity”. In addition, at delF508-CFTR [1], the “delF508-CFTR chloride channel activity” value was “enhanced activity of the mutant CFTR”. In addition, the prevention of inflammation entry with inflammation is “effectively prevent inflammation in an animal model”. The “delF508-CFTR activity (fluorescence quenching due to Cl-/I- exchange)” value at delF508-CFTR [2] is listed as “restores delF508-CFTR activity to a level that is similar to that obtained with corr-4-a”. Besides, the “appearance of mature delF508-CFTR protein (band C)” value at delF508-CFTR [3] was “led to the appearance of the mature band C, similar to that seen with corr-4-a”. For the same compound, the TAK1 inhibition entry on TAK1 is “irreversibly inhibits TAK1”.
For `Cc1[nH]c(/C=C2\C(=O)Nc3ccccc32)c(C)c1CCC(=O)O` [SU6668, 3-[2,4-dimethyl-5-[(Z)-(2-oxo-1H-indol-3-ylidene)methyl]-1H-pyrrol-3-yl]propanoic acid], the “sensitivity of 293MSR-GT cells toward compound” value in the series with 293MSR-GT cells was “increased sensitivity”. Moreover, the “delF508-CFTR chloride channel activity” value at delF508-CFTR [1] is on record as “enhanced activity of the mutant CFTR”.
